Laboratory results taken from article PMC5390467, “Novel lead structures with both Plasmodium falciparum gametocytocidal and asexual blood stage activity identified from high throughput compound screening” (Malaria Journal, 2017).

Tests used:
[1] = system: P. falciparum NF54 asexual parasites; assay: asexual parasite growth inhibition assay (SYBR Green); type: cell-based, Plasmodium falciparum; settings: 72 h, mean ± SD, n = 3
Description: (§1) Asexual parasites of P. falciparum strain NF54 were cultured as described previously. Briefly, parasites were maintained in RPMI 1640 medium containing 10% positive human serum + erythrocytes (5% haematocrit), 2.5% sodium bicarbonate and 11 µg/mL gentamicin at 37 °C with 5% CO2, 5% O2 and 90% N2. Gametocyte cultures were set up at 0.1% parasitaemia and on days 9–10 treated with 50 mM N-acetylglucosamine (NAG) to block further asexual growth. Stage III–V gametocytes were isolated by Percoll density gradient centrifugation on day 12 and returned to culture for 24 h before being used in the assay. At the time of the assay over 73% of the gametocytes were stage IV or V (Additional file 1). HepG2 cells (ATCC, cat. no. 77400) were cultured in 175-cm^2 tissue culture flasks with 30 ml growth medium at 37 °C in a 5% CO2 and 5% O2 humidified atmosphere. Growth medium was made with Dulbecco’s Modified Eagle Medium with 10% fetal bovine serum (FBS). Growth medium was replaced every other day and cells were passaged at 75% confluence.
Drug activity on asexual stage parasites was tested using a SYBR Green assay as described previously. Briefly, 2.5 μL/well complete culture medium was dispensed into each well of 1536-well plates using the Multidrop Combi followed by 23 nL compound transferring using the NX-TR Pintool. Parasites were diluted to 0.5% parasitaemia in complete culture medium with 2% haematocrit and drugs diluted in DMSO (≤0.5%). The pre-diluted parasites were dispensed into a 1536-well plate (2.5 μL/well). After 72 h incubation under the standard culture conditions, 5 μL/well of lysis buffer containing SYBR Green I was added to the parasite culture and incubated for 30 min at room temperature. The fluorescence of each well was measured in a fluorescence detection mode (Ex = 490 nm, Em = 520 nm) using a ViewLux plate reader (PerkinElmer).

HepG2 cells = assay: HepG2 cytotoxicity assay (AlamarBlue); type: cell-based, human; settings: for HepG2, IC50 (dash = less than 25% cytotoxicity) / cytotoxicity at 46 µM / IC50: HepG2 cells, 72 h, AlamarBlue; for HepG2, IC50 (dash = less than 25% cytotoxicity) / cytotoxicity at 46 µM: up to 46 µM; for cytotoxicity at 46 µM: Homo sapiens, read-out: HepG2, IC50 (dash = less than 25% cytotoxicity); for IC50 / maximum response, HepG2 cytotoxicity: titration 0.001 to 46 µM; for IC50: mean ± SD, n = 3
Description: as §1
Drug activity on HepG2 was tested using an AlamarBlue assay as previously described. Briefly, 5 μL/well of HepG2 cells were dispensed with a seeding density of 1000 cells/well using the Multidrop Combi. 23 nL compound was transferred using the NX-TR Pintool. After 72 h incubation under the standard culture condition, 5 μL/well of 2X AlamarBlue dye was added to the cells, the plates were incubated for 2 h at 37 °C with 5% CO2 and then were read in a fluorescence detection mode (Ex = 525 nm, Em = 598 nm) on a ViewLux plate reader.

[2] = system: P. falciparum NF54 gametocytes; assay: gametocyte viability assay (AlamarBlue); type: cell-based, Plasmodium falciparum; settings: for IC50: P. falciparum NF54 stage III-V gametocytes, 72 h, AlamarBlue, mean ± SD, n = 3; for Asexual/Gametocyte: ratio of asexual IC50 to gametocyte IC50; for ratio of IC50s, lower IC50 in gametocyte viability assay than in asexual parasite growth assay: asexual versus gametocyte
Description: as §1
Compounds from the Sytravon library (a retired Pharma screening collection that contains a diversity of novel small molecules, with an emphasis on medicinal chemistry-tractable scaffolds) were obtained as powder samples and dissolved in DMSO as […] stock solutions. Compound screening experiments were performed as previously described. In the primary screen, two concentrations for each compound were tested. No technical and biological replicates were involved. In the follow-up confirmation studies, three biological replicates were tested for each compound in both parasite assays. The positive control was 46 µM of Torin 2 and negative control was DMSO. Briefly, 2.5 μL/well incomplete medium was dispensed into each well of 1536-well plates using the Multidrop Combi followed by 23 nL compound transferring using the NX-TR Pintool (WAKO Scientific Solutions, San Diego, CA). Then, 2.5 μL/well of gametocytes was dispensed with a seeding density of 20,000 cells/well using the Multidrop Combi. The assay plates were incubated for 72 h at 37 °C with 5% CO2. After addition of 5 μL/well of 2X AlamarBlue dye (Life Technologies, cat. no. DAL1100), the plates were incubated for 24 h at 37 °C with 5% CO2 and then were read in a fluorescence detection mode (Ex = 525 nm, Em = 598 nm) on a ViewLux plate reader (PerkinElmer).

Structure (SMILES)	IC50 [1] [µM]	IC50 [2] [µM]	IC50 ([1]; Plasmodium falciparum) [µM]	IC50 ([2]; Plasmodium falciparum) [µM]	ratio of IC50s, lower IC50 in gametocyte viability assay than in asexual parasite growth assay [2]	HepG2, IC50 (dash = less than 25% cytotoxicity) (HepG2 cells)	Asexual/Gametocyte [2]	cytotoxicity at 46 µM (HepG2 cells) [%]	IC50 (HepG2 cells) [µM]	maximum response, HepG2 cytotoxicity (HepG2 cells) [%]
CC(C)c1ccccc1Oc1c(C(F)(F)F)oc2c(CN3CCN(C)CC3)c(O)ccc2c1=O [NCGC00100597]	0.63 ± 0.05	6.04 ± 1.9	–	–	–	– (Indicates compounds with less than 25% cytotoxicity at up to 46 µM)	0.10	–	–	–
CCc1ccc(Oc2c(C(F)(F)F)oc3c(CN4CCN(CC)CC4)c(O)ccc3c2=O)cc1 [NCGC00101506]	0.54 ± 0.05	4.82 ± 0.21	–	–	–	– (Indicates compounds with less than 25% cytotoxicity at up to 46 µM)	0.11	–	–	–
CCOc1ccccc1N(C)C(=O)Cn1cnc2sc(C)c(S(=O)(=O)N3CCC(C)CC3)c2c1=O [NCGC00104044]	9.94 ± 0.93	–	–	–	–	– (Indicates compounds with less than 25% cytotoxicity at up to 46 µM)	0.26	–	–	–
CC(C)c1ccc(Nc2c(-c3ccccn3)nc3ccccn23)cc1 [NCGC00104490]	–	–	2.22 ± 0.35	1.29 ± 0.29	–	–	1.72	< 25	–	–
COc1ccc(Nc2c(-c3ccccn3)nc3ccc(Cl)cn23)cc1 [NCGC00104528]	13.9 ± 0.93	8.91 ± 0.2	–	–	–	– (Indicates compounds with less than 25% cytotoxicity at up to 46 µM)	1.56	–	–	–
Cc1cccc2nc(-c3ccccn3)c(Nc3ccccc3)n12 [NCGC00106055]	4.18 ± 0.68	3.98 ± 1.12	–	–	–	– (Indicates compounds with less than 25% cytotoxicity at up to 46 µM)	1.05	–	–	–
Cc1ccc2nc(-c3ccccn3)c(Nc3ccccc3C)n2c1 [NCGC00106087]	7.49 ± 4.11	3.34 ± 0.51	–	–	–	– (Indicates compounds with less than 25% cytotoxicity at up to 46 µM)	2.24	–	–	–
Cc1ccc2nc(-c3ccccn3)c(Nc3ccc(F)cc3)n2c1 [NCGC00106091]	4.51 ± 1.29	2.45 ± 0.42	–	–	–	– (Indicates compounds with less than 25% cytotoxicity at up to 46 µM)	1.84	–	–	–
Cc1ccn2c(Nc3ccccc3C)c(-c3ccccn3)nc2c1 [NCGC00106119]	4.22 ± 0.29	2.82 ± 0.3	–	–	–	– (Indicates compounds with less than 25% cytotoxicity at up to 46 µM)	1.50	–	–	–
Cc1ccn2c(Nc3ccc(F)cc3)c(-c3ccccn3)nc2c1 [NCGC00106780]	–	–	3.53 ± 1.21	1.82 ± 0.11	–	–	1.94	< 25	–	–
CCN(CC)CCCNC(=O)CSc1c2c(nc3cc(Cl)ccc13)CCCC2 [NCGC00110901]	36.1 ± 15.2	10.6 ± 1.32	–	–	~ fourfold	– (Indicates compounds with less than 25% cytotoxicity at up to 46 µM)	3.41	–	–	–
CN1CCN(c2nc3c(S(=O)(=O)c4ccc(Br)cc4)nnn3c3ccsc23)CC1 [NCGC00123034]	32.1 ± 12.6	35.2 ± 4.52	–	–	–	– (Indicates compounds with less than 25% cytotoxicity at up to 46 µM)	0.92	–	–	–
O=C(NCc1ccc(Cl)cc1)C1CCCN(C(=O)c2cnn(-c3ccc(F)cc3)c2-n2cccc2)C1 (stereo not drawn) [NCGC00124960]	35.6 ± 1.77	~60	–	–	–	– (Indicates compounds with less than 25% cytotoxicity at up to 46 µM)	0.59	–	–	–

More lines, main results first:

IC50 [1] [µM]	IC50 [2] [µM]	IC50 ([1]; Plasmodium falciparum) [µM]	IC50 ([2]; Plasmodium falciparum) [µM]	ratio of IC50s, lower IC50 in gametocyte viability assay than in asexual parasite growth assay [2]	Structure (SMILES)	HepG2, IC50 (dash = less than 25% cytotoxicity) (HepG2 cells)	Asexual/Gametocyte [2]	cytotoxicity at 46 µM (HepG2 cells) [%]	IC50 (HepG2 cells) [µM]	maximum response, HepG2 cytotoxicity (HepG2 cells) [%]
7.49 ± 0.86	31.3 ± 12.8	–	–	–	CC(C)(C)OC(=O)N1CCC(c2c(C(=O)NCCN3CCC(Cc4ccccc4)CC3)cnn2-c2cccc(Cl)c2)CC1 [NCGC00126892]	–	0.24	–	34.4	93.0
1.47 ± 0.04	30.6 ± 1.95	–	–	–	COc1ccc(CCN2CCC(CNC(=O)c3cnn(-c4ccccc4)c3C3CCN(C(=O)OC(C)(C)C)CC3)CC2)cc1 [NCGC00126987]	–	0.05	–	38.6 ± 0.42	86.1
3.05 ± 0.27	20.3 ± 0.31	–	–	–	CC(C)(C)OC(=O)N1CCC(c2c(C(=O)NCCN3CCOCC3)cnn2-c2ccccc2)CC1 [NCGC00127015]	–	0.15	–	38.4	87.2
3.44 ± 0.24	11.9 ± 2.05	–	–	–	CC(C)(C)OC(=O)N1CCC(c2c(C(=O)NCCN3CCC(Cc4ccccc4)CC3)cnn2-c2ccccc2)CC1 [NCGC00127017]	–	0.29	–	25.3	87.6
–	–	5.96 ± 0.7	1.55 ± 0.11	~ fourfold	Cc1cc(Nc2ccc(F)cc2)nc(-n2nc(C)cc2C)n1 [NCGC00134124]	–	3.85	< 25	–	–
–	–	4.78 ± 0.43	1.19 ± 0.05	~ fourfold	COc1ccc(Nc2cc(C)nc(-n3nc(C)cc3C)n2)cc1Cl [NCGC00134126]	–	4.02	< 25	–	–
–	–	1.93 ± 0.13	1.18 ± 0.17	–	Cc1cc(Nc2ccc(C(C)C)cc2)nc(-n2nc(C)cc2C)n1 [NCGC00134128]	–	1.64	< 25	–	–
–	–	3.26 ± 0.5	1.42 ± 0.24	–	Cc1cccc(Nc2cc(C)nc(-n3nc(C)cc3C)n2)c1 [NCGC00134130]	–	2.30	< 25	–	–
–	–	2.41 ± 0.32	1.29 ± 0.32	–	CCCCc1ccc(Nc2cc(C)nc(-n3nc(C)cc3C)n2)cc1 [NCGC00134132]	–	1.87	< 25	–	–
4.12 ± 0.1	2.57 ± 0.48	–	–	–	Cc1cc(Nc2ccc(Cl)cc2C)nc(-n2nc(C)cc2C)n1 [NCGC00134136]	– (Indicates compounds with less than 25% cytotoxicity at up to 46 µM)	1.60	–	–	–
–	–	2.83 ± 0.31	1.19 ± 0.34	–	Cc1ccc(Nc2cc(C)nc(-n3nc(C)cc3C)n2)cc1 [NCGC00134154]	–	2.38	< 25	–	–
3.53 ± 0.27	2.1 ± 0.73	–	–	–	Cc1cc(Nc2cc(F)ccc2C)nc(-n2nc(C)cc2C)n1 [NCGC00134156]	– (Indicates compounds with less than 25% cytotoxicity at up to 46 µM)	1.68	–	–	–
4.7 ± 0.52	2.08 ± 0.18	–	–	–	Cc1cc(Nc2ccc(F)cc2F)nc(-n2nc(C)cc2C)n1 [NCGC00134158]	– (Indicates compounds with less than 25% cytotoxicity at up to 46 µM)	2.26	–	–	–
0.96 ± 0.3	4.25 ± 0.64	–	–	–	COc1ccccc1Cn1c(CNS(=O)(=O)c2cccc([N+](=O)[O-])c2)nc2cccnc21 [NCGC00134795]	– (Indicates compounds with less than 25% cytotoxicity at up to 46 µM)	0.23	–	–	–
